Source: patent publication US20250154169A1, “COMPOUNDS AND METHODS FOR MODULATING SPLICING” (REMIX THERAPEUTICS INC., priority 2021, published 2025)

Columns and labels:
HTT mRNA = experiment: Splicing RT-qPCR assay, HTT canonical (CJ) and alternative (AJ) junction mRNA; type: cell-based, human; settings: Homo sapiens, A673 or K562 cells, 24 hours compound treatment; for IC50: 24 h, read-out: HTT CJ (IC50, decrease in canonical junction mRNA); for AC50: read-out: HTT AJ (AC50, increase in alternative junction mRNA)
Summary of the method: (§1)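 Compound-induced exon inclusion is tracked as an increase in AJ transcript alongside the CJ transcript. Cells (A673 normalized to PPIA; K562 to GAPDH or GUSB) are dosed 24 h with a serial dilution topping at 10 uM, ≤0.25% DMSO, then lysed and analysed by RT-qPCR in at least duplicate.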

MYB mRNA = experiment: Splicing RT-qPCR assay, MYB canonical (CJ) and alternative (AJ) junction mRNA; type: cell-based, human; settings: Homo sapiens, 24 h, A673 or K562 cells, 24 hours compound treatment, RT-qPCR; for AC50: read-out: MYB AJ (AC50, increase in alternative junction mRNA); for IC50: read-out: MYB CJ (IC50, decrease in canonical junction mRNA)
Summary of the method: as §1

Row | Structure (SMILES) | IC50 (HTT mRNA) | IC50 (MYB mRNA) | AC50 (HTT mRNA) | AC50 (MYB mRNA)
1 | CCn1cc2c(C3CCNC3)ccc(C(=O)Nc3cc(F)c4nccn4c3)c2n1 (stereo not drawn) [Compound 526, 2-ethyl-N-{8-fluoroimidazo[1,2-a]pyridin-6-yl}-4-(pyrrolidin-3-yl) indazole-7-carboxamide] | > 10 µM | 1 to 10 µM | > 10 µM | 1 to 10 µM
2 | CCN(c1ccc(C(=O)Nc2cc(F)c3nc(C)cn3c2)c2nn(C)cc12)C1CCNCC1 [Compound 527, 4-[ethyl(piperidin-4-yl)amino]-N-{8-fluoro-2-methylimidazo[1,2-a]pyridin-6-yl}-2-methylindazole-7-carboxamide] | > 10 µM | 0.1 to 1 µM | > 10 µM | 0.1 to 1 µM
3 | Cc1cn2cc(NC(=O)c3cc(Cl)c(N4CCNCC4)c4cn(C)nc34)cc(F)c2n1 [Compound 528, 5-chloro-N-{8-fluoro-2-methylimidazo[1,2-a]pyridin-6-yl}-2-methyl-4-(piperazin-1-yl) indazole-7-carboxamide] | > 10 µM | 0.1 to 1 µM | > 10 µM | 0.1 to 1 µM
4 | COc1nc(NC(=O)c2ccc(N3CCNCC3)c3cn(C)nc23)cc2oc(C)nc12 [Compound 529, N-{4-methoxy-2-methyl-[1,3]oxazolo[4,5-c]pyridin-6-yl}-2-methyl-4-(piperazin-1-yl) indazole-7-carboxamide] | < 0.1 µM | < 0.1 µM | 0.1 to 1 µM | < 0.1 µM
5 | Cc1cn2cc(NC(=O)c3ccc(N4CC[C@@H](NC5COC5)C4)c4cn(C)nc34)cc(F)c2n1 [Compound 531, N-{8-fluoro-2-methylimidazo[1,2-a]pyridin-6-yl}-2-methyl-4-[(3R)-3-(oxetan-3-ylamino)pyrrolidin-1-yl]indazole-7-carboxamide] | 1 to 10 µM | 0.1 to 1 µM | 1 to 10 µM | 1 to 10 µM
6 | Cc1cn2cc(NC(=O)c3ccc(N4CC[C@@H](NC5CCC5)C4)c4cn(C)nc34)cc(F)c2n1 [Compound 533, (R)-4-(3-(cyclobutylamino)pyrrolidin-1-yl)-N-(8-fluoro-2-methylimidazo[1,2-a]pyridin-6-yl)-2-methyl-2H-indazole-7-carboxamide] | 1 to 10 µM | < 0.1 µM | 1 to 10 µM | < 0.1 µM
7 | CCn1cc2c(N3CCN[C@@H](C(C)C)C3)ccc(C(=O)Nc3cc(F)c4nc(C)cn4c3)c2n1 [Compound 535, 2-ethyl-N-{8-fluoro-2-methylimidazo[1,2-a]pyridin-6-yl}-4-[(3 S)-3-isopropylpiperazin-1-yl]indazole-7-carboxamide] | > 10 µM | 0.1 to 1 µM | > 10 µM | 0.1 to 1 µM
8 | CCn1cc2c(N(C)C3CCNCC3)ccc(C(=O)Nc3cc(F)c4nc(C)cn4c3)c2n1 [Compound 545, 2-ethyl-N-(8-fluoro-2-methylimidazo[1,2-a]pyridin-6-yl)-4-(methyl(piperidin-4-yl)amino)-2H-indazole-7-carboxamide] | 1 to 10 µM | 0.1 to 1 µM | > 10 µM | 0.1 to 1 µM
9 | CCn1cc2c(N(C)C3C[C@H]4CC[C@@H](C3)N4)ccc(C(=O)Nc3cc(F)c4nc(C)cn4c3)c2n1 (stereo partly drawn) [Compound 550, 4-[(1R,5S)-8-azabicyclo[3.2.1]octan-3-yl(methyl)amino]-2-ethyl-N-{8-fluoro-2-methylimidazo[1,2-a]pyridin-6-yl}indazole-7-carboxamide] | > 10 µM | 1 to 10 µM | > 10 µM | 1 to 10 µM

Continued, in another order:

Row | IC50 (HTT mRNA) | IC50 (MYB mRNA) | Structure (SMILES) | AC50 (HTT mRNA) | AC50 (MYB mRNA)
10 | > 10 µM | 1 to 10 µM | CCn1cc2c(N3CCN4CCOC[C@H]4C3)ccc(C(=O)Nc3cc(F)c4nc(C)cn4c3)c2n1 [Compound 537, 4-[(9aR)-hexahydro-1H-pyrazino[2,1-c][1,4]oxazin-8-yl]-2-ethyl-N-{8-fluoro-2-methylimidazo[1,2-a]pyridin-6-yl}indazole-7-carboxamide] | > 10 µM | 1 to 10 µM
11 | 1 to 10 µM | 1 to 10 µM | CCn1cc2c(N3CCN4CCOC[C@@H]4C3)ccc(C(=O)Nc3cc(F)c4nc(C)cn4c3)c2n1 [Compound 538, 4-[(9aS)-hexahydro-1H-pyrazino[2,1-c][1,4]oxazin-8-yl]-2-ethyl-N-{8-fluoro-2-methylimidazo[1,2-a]pyridin-6-yl} indazole-7-carboxamide] | 1 to 10 µM | 1 to 10 µM
12 | > 10 µM | 1 to 10 µM | CCn1cc2c(N3CCC(C)(N)C3)ccc(C(=O)Nc3cc(F)c4nc(C)cn4c3)c2n1 (stereo not drawn) [Compound 539, 4-(3-amino-3-methylpyrrolidin-1-yl)-2-ethyl-N-{8-fluoro-2-methylimidazo[1,2-a]pyridin-6-yl}indazole-7-carboxamide] | > 10 µM | 1 to 10 µM
13 | > 10 µM | 0.1 to 1 µM | CCn1cc2c(N3CCN[C@@H](C4CC4)C3)ccc(C(=O)Nc3cc(F)c4nc(C)cn4c3)c2n1 [Compound 541, 4-[(3S)-3-cyclopropylpiperazin-1-yl]-2-ethyl-N-{8-fluoro-2-methylimidazo[1,2-a]pyridin-6-yl}indazole-7-carboxamide] | > 10 µM | 0.1 to 1 µM
14 | 1 to 10 µM | 0.1 to 1 µM | CCn1cc2c(N3CCN[C@H](C4CC4)C3)ccc(C(=O)Nc3cc(F)c4nc(C)cn4c3)c2n1 [Compound 542, 4-[(3R)-3-cyclopropylpiperazin-1-yl]-2-ethyl-N-{8-fluoro-2-methylimidazo[1,2-a]pyridin-6-yl}indazole-7-carboxamide] | 1 to 10 µM | 0.1 to 1 µM
15 | 1 to 10 µM | < 0.1 µM | CCn1cc2c(N3CCC(NC4CCC4)CC3)ccc(C(=O)Nc3cc(F)c4nc(C)cn4c3)c2n1 [Compound 543, 4-[4-(cyclobutylamino)piperidin-1-yl]-2-ethyl-N-{8-fluoro-2-methylimidazo[1,2-a]pyridin-6-yl}indazole-7-carboxamide] | 1 to 10 µM | < 0.1 µM
16 | > 10 µM | 1 to 10 µM | CCn1cc2c(N3CCC(C)(NC)C3)ccc(C(=O)Nc3cc(F)c4nc(C)cn4c3)c2n1 (stereo not drawn) [Compound 544, 2-ethyl-N-{8-fluoro-2-methylimidazo[1,2-a]pyridin-6-yl}-4-[3-methyl-3-(methylamino)pyrrolidin-1-yl]indazole-7-carboxamide] | > 10 µM | 1 to 10 µM
17 | > 10 µM | > 10 µM | CCn1cc2c(N3CC[C@@](C)(NC)C3)ccc(C(=O)Nc3cc(F)c4nc(C)cn4c3)c2n1 [Compound 547, 2-ethyl-N-{8-fluoro-2-methylimidazo[1,2-a]pyridin-6-yl}-4-[(3R)-3-methyl-3-(methylamino)pyrrolidin-1-yl]indazole-7-carboxamide] | > 10 µM | > 10 µM
18 | > 10 µM | > 10 µM | CCn1cc2c(N3CC[C@](C)(NC)C3)ccc(C(=O)Nc3cc(F)c4nc(C)cn4c3)c2n1 [Compound 548, 2-ethyl-N-{8-fluoro-2-methylimidazo [1,2-a]pyridin-6-yl}-4-[(3S)-3-methyl-3-(methylamino)pyrrolidin-1-yl]indazole-7-carboxamide] | > 10 µM | > 10 µM
